Laboratory results as given in patent publication US20220378763A1, “COMPOUND FOR TREATMENT OF ACUTE INFLAMMATION IN THE MYOCARDIUM” (CALPROTECT AB, priority 2019, published 2022).

Test system: C57BL/6 mice with induced MI
Assay: Flow cytometry of myeloid cells and reparatory macrophages on day 7 post-MI
Format: in vivo, mouse
Details: for Intra-myocardial counts of reparatory macrophages vs PBS-treated MI controls: hearts collected 7 days post-MI
Protocol: Immune cells from blood, spleen, heart and bone-marrow were collected at 2 or 7 days post-MI, and analysed by flow-cytometry. Mice were anesthetized by intraperitoneal injection of a mixture of xylazine (10 mg/kg) and ketamine (100 mg/kg). After 10 minutes, blood was collected by cardiac punction. Thereafter, the spleen was removed and the heart was perfused with 5 ml ice-cold PBS. Perfused hearts were excised and collected into tubes with PBS and kept on ice. Femurs and tibias from each mouse were used to obtain whole bone marrow for analysis. Blood was stained with fluorochrome-labelled antibodies against mouse monocyte and neutrophil markers diluted in MACS buffer (PBS, 10% FCS and 0.5% BSA), followed by treatment with erythrocyte lysis buffer, washing and analysis. Spleens were mashed trough a cell strainer in ice-cold PBS. Hearts were cut into small pieces and placed into tubes containing 2.5 ml digestion cocktail (Collagenase I, 450 U/ml; Collagenase XI, 125 U/ml; DNAase I, 60 U/ml; Hyaluronidase type 1-5, 60 U/ml diluted in PBS containing Ca and Mg) incubated for 1 h at 37° C. with shaking at 220 rpm. Bone marrow was flushed from femur and tibia using ice-cold PBS. Cell suspensions from spleen, heart and bone marrow were filtered through a 40 um cell strainer (BD), treated with erythrocyte lysis buffer, washed and stained. For intracellular staining, cells were fixed, permeabilized and stained. Cell populations were analyzed by flow cytometry in a Gallios Flow Cytometer (Backman Coulter), and the results were analyzed using FlowJo (FlowJo®, LLC; Tree Star). The following anti-mouse antibodies were used for the flow cytometric analysis: anti-CD45 (30-F11), anti-CD11b (M1/70), anti-Ly6C (HK1.4), anti-CD115 (AFS98), anti-Ly6G (1A8), anti-F4/80 (BM8), anti-CCR2 (475301), anti-Ter119 (TER119), anti-Gr1 (RB6-8C5), anti-CD45R/B220 (RA3-6B2), anti-CD3ξ (145-2C11), anti-NK1.1 (PK136), anti-Ly6A/E (Sca-1) (E13-1617), anti-CD117 (c-kit) (2B8), anti-CD48 (HM48.1), anti-CD150/SLAM (TC15-12F12.2), anti-CD16/32 (93), anti-CD34 (MEC14.7) (all from BioLegend, San Diego, Calif., USA); anti-MerTK (DSSMMER) and anti-Nur77 (12.14) (eBioscience).
MI induction and other procedures were carried out as outlined in Example 2. For long-term experiments of up to 21 days, a daily dose of 30 mg/Kg ABR-238901 was diluted in PBS and administered by daily i.p. injections for the first 3 days post-MI until the mice recovered and started to drink normally, and thereafter p.o. ad-libitum in meglumine buffer (FIG. 4A). Adequate treatment dosage was ensured by closely monitoring daily fluid intake.
In an attempt to explain these intriguing results, we assessed the effects of the extended treatment on the presence of myeloid cells in blood, spleen, bone marrow and myocardium, with particular emphasis on cellular populations involved in myocardial repair. The cellular infiltration was analysed by flow cytometry on day 7, at the peak of the reparatory post-MI period. […] Reparatory macrophages in the ischemic myocardium have previously been defined as CD11b^+F4/80^+Ly6C^lo cells. […] In order to investigate the possible mechanisms leading to impaired cardiac function in mice receiving long-term S100A9 blockade, we examined the presence and function of Ly6C^loMerTK^hi macrophages in the myocardium at 7 days post-MI. We found an approximately 50% reduction of the number of reparatory macrophages in hearts of mice receiving ABR-238901 compared to controls (FIG. 40). […] In order to test the functional importance of these findings, we used α-MHC-mCherry mice expressing cardiac-specific red fluorescent Cherry protein under the mouse a-myosin heavy-chain promoter.
Reparatory macrophage numbers were analysed in hearts collected at 7 days post-MI from mice with induced MI treated with ABR-238901 for 3 or 7 days.

[1] = treatment for 7 days, 7 days post-MI

COc1ncc(S(=O)(=O)Nc2cncc(Cl)c2O)cc1Br [ABR-238901, 5-bromo-N-(5-chloro-4-hydroxypyridin-3-yl)-6-methoxypyridine-3-sulfonamide]
Intra-myocardial counts of reparatory macrophages vs PBS-treated MI controls (3 days treatment): on par with
Intra-myocardial counts of reparatory macrophages vs PBS-treated MI controls (continuous treatment for 7 days): significantly lower
Percentage of reparatory Ly6CloMerTKhi out of total CD11b+F4/80+ macrophages [1]: significantly decreased
Reduction of the number of reparatory Ly6CloMerTKhi macrophages in hearts vs controls [1]: approximately 50%
Cell counts in the bone marrow (treatment for 7 days, day 7): no differences
Monocytes in the spleen vs MI controls (treatment for 7 days, day 7): accumulation
Numbers of circulating monocytes (treatment for 7 days, day 7): significantly lower
Numbers of circulating neutrophils (treatment for 7 days, day 7): significantly lower
Numbers of neutrophils in the spleen (treatment for 7 days, day 7): not significantly affected
Presence of monocytes in the heart (treatment for 7 days, day 7): potently reduced
Presence of total CD11b+F4/80+ macrophages in the heart (treatment for 7 days, day 7): potently reduced
